Measurements from PubChem BioAssay (NCI).
“And” between values parts separate entries of the source, which are not always exact repeats. Equal values may be shown once.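 Five compound concentrations were applied to cells in 96-well plates for 48 hours; endpoints were derived by simple linear interpolation of the resulting dose-response curve. Abbreviation: GI50, concentration required for 50% inhibition of growth. TGI: total growth inhibition.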

Tests used:
Test in all cases: NCI anticancer screen, dose series, 48 h
DLD-1 colon = test system: DLD-1 colon
LXFL 529 NSCLC = test system: LXFL 529 NSCLC
DMS 114 small cell lung = test system: DMS 114 small cell lung
RXF-631 renal = test system: RXF-631 renal
DMS 273 small cell lung = test system: DMS 273 small cell lung
SNB-78 CNS = test system: SNB-78 CNS
HS 578T breast = test system: HS 578T breast
XF 498 CNS = test system: XF 498 CNS
MDA-N = test system: MDA-N

SMILES | TGI (DLD-1 colon) [µM] | TGI (LXFL 529 NSCLC) [µM] | TGI (DMS 114 small cell lung) [µM] | TGI (DMS 273 small cell lung) [µM] | TGI (SNB-78 CNS) [µM] | GI50 (HS 578T breast) | TGI (HS 578T breast) | also measured
C[Si](C)(C)[C@@]1([Se]c2ccccc2)CC[C@@H]1C(=O)c1ccccc1 | > 100 | > 100 | > 100 | > 100 | > 100 |  |  | TGI (RXF-631 renal): > 100 µM
NC(=O)c1ccc(-c2c3ccccc3cc3c2ccc2ccccc23)cc1 |  |  |  |  |  | 2 µM | 7.08 µM | 
c1ccc(CN(Cc2ccccn2)Cn2cccn2)nc1 | > 100 |  | 54.6 | > 100 | > 100 |  |  | TGI (RXF-631 renal): > 100 µM; TGI (XF 498 CNS): > 100 µM
COc1cc(C(N)=O)c(OC)c(OC)c1OC | > 100 | > 100 | > 100 | > 100 | > 100 |  |  | TGI (RXF-631 renal): > 100 µM
OCC1CC2CC1C1(C2)OCCO1 (stereo not given) | > 100 | > 100 | > 100 | > 100 | > 100 |  |  | TGI (RXF-631 renal): > 100 µM; TGI (XF 498 CNS): > 100 µM
O=C(N/N=C\c1cc(Cl)ccc1O)N/N=C/c1cc(Cl)ccc1O |  |  |  |  |  | 0.643 µM | > 100 µM | 
CC(=O)OCC1OC(O[C@@H]2C[C@H]3C(C)(C)[C@H](OC(C)=O)CC[C@]3(C)[C@H]3CC[C@@H]4[C@]5(CC[C@@]4(C)[C@@]32C)O[C@@H]([C@H](O)C(C)(C)O)C[C@@H]5C)C(O)C(O)C1O (stereo not given in full) |  |  |  |  |  | 9.3 µM | 25.4 µM | GI50 (MDA-N): 7.08 µM; TGI (MDA-N): 20.1 µM
CCNC1=CC(=O)c2ncccc2C1=O |  |  |  |  |  | 1.69 µM | 6.27 µM | 
CC1=CC(=O)c2[nH]c3ccccc3c2C1=O | 8.82 | 7.63 | 7.82 | 7.83 |  |  |  | GI50 (DLD-1 colon): 5.06 µM; GI50 (LXFL 529 NSCLC): 4.22 µM; GI50 (XF 498 CNS): 4.38 µM; TGI (XF 498 CNS): 7.99 µM; GI50 (DMS 273 small cell lung): 4.26 µM
O=C1CCCc2c(O)ccc(O)c21 | > 100 | > 100 | 74.9 | > 100 | > 100 |  |  | 
Nc1nc(Cl)cc(NCCCCCCCCCCNc2cc(Cl)nc(N)n2)n1 | > 100 | > 100 |  | > 100 | > 100 |  |  | TGI (RXF-631 renal): 40.3 µM; TGI (XF 498 CNS): 8.86 µM
Nc1ccccc1C#Cc1ccccc1C#CCCCCO |  |  |  |  |  | 35.8 µM | > 100 µM | 
COc1cc([N+](=O)[O-])c2ncccc2c1O |  |  |  |  |  | 2.74 µM | 27.3 µM | 
COc1ccc2c(c1)[n+]([O-])c(-c1ccc(Cl)c(Cl)c1)c(N)[n+]2[O-] | > 100 | > 100 | 32.1 | 66.7 | > 100 |  |  | TGI (RXF-631 renal): 82.3 µM
COCCOC(=O)CCn1cc(F)c(=O)[nH]c1=O |  |  |  |  |  | > 150 µg/mL | > 150 µg/mL | GI50 (MDA-N): 2.29 µg/mL; TGI (MDA-N): > 150 µg/mL
N#CCc1nc2c(s1)C(=O)c1ccccc1C2=O |  | 28.2 | 20.1 | 29.9 | 47.7 |  |  | TGI (RXF-631 renal): 42.7 µM
O=C(O)c1c(Cl)c(Cl)c(Cl)c(Cl)c1-c1c2cc(I)c(=O)c(I)c-2oc2c(I)c(O)c(I)cc12 |  |  |  |  |  | 35.7 µM and 33 µM | 83.7 µM | 
Fc1cc(Nc2ccc3c(OCCCN4CCOCC4)cccc3n2)ccc1Cl |  |  |  |  |  | 2.19 µM | 6 µM | 
NC(=O)Cn1c(=O)[nH]c(=O)c2[nH]cnc21 |  | > 100 | > 100 | > 100 |  |  |  | 

SMILES | TGI (DLD-1 colon) [µM] | TGI (LXFL 529 NSCLC) [µM] | TGI (DMS 114 small cell lung) [µM] | TGI (DMS 273 small cell lung) [µM] | TGI (SNB-78 CNS) [µM] | GI50 (HS 578T breast) | TGI (HS 578T breast) | also measured
NC(=NC1C2CC3CC(C2)CC1C3)Nc1ccc(I)cc1 (stereo not given) |  |  |  |  |  | 4.65 µM | 25.2 µM | 
OCC(O)C(OC1OC(CO)C(O)C(O)C1O)c1nn(-c2ccc(F)cc2)c2nc3cc(Cl)c(Cl)cc3cc12 (stereo not given) | > 100 | > 100 | > 100 |  | > 100 |  |  | TGI (XF 498 CNS): > 100 µM
NC(=O)c1ccc(NC(=O)c2oc3ccccc3c2-c2cnn(-c3ccccc3)c2)cc1 |  |  |  |  |  | 4.56 µM | > 100 µM | 
O=C(O)C1C2CC3CC2CC31 (stereo not given) |  | > 100 | > 100 | > 100 | > 100 |  |  | TGI (RXF-631 renal): > 100 µM; TGI (XF 498 CNS): > 100 µM
O=C1CCC(c2ccccc2)(c2ccccc2)CC1 |  |  |  |  |  |  | > 100 µM | TGI (MDA-N): > 100 µM
C/C(=N\n1c(N)c(C#N)c(-c2ccc(Cl)cc2)c(C#N)c1=O)c1cccnc1 |  |  |  |  |  | > 100 µM | > 100 µM | 
CN(C)/C(=N/C(=O)Nc1ccccc1)SCc1ccccc1 | > 100 | > 100 | > 100 | > 100 | > 100 |  |  | TGI (XF 498 CNS): > 100 µM
COc1cc(Nc2ncc(-c3ccccc3)o2)cc(OC)c1OC |  |  |  |  |  | 0.278 µM | 4.55 µM | 
O=C(O)CCN1C(=O)/C(=C/C(Cl)=C/c2ccccc2)SC1=S |  |  |  |  |  | 3.18 µM | 17.3 µM | 
COc1ccc(C2CC(C)=Nc3c([nH]c(=S)[nH]c3=O)N2)cc1 (stereo not given) |  | 30.5 | 38.8 | 35.9 | > 100 |  |  | TGI (RXF-631 renal): > 100 µM; TGI (XF 498 CNS): 59.4 µM
CC(Cl)CC(=O)Nc1ccc2c(c1)oc(=O)c1cc(NC(=O)CC(C)Cl)ccc12 (stereo not given) |  |  |  |  |  | 2.36 µM | 22.6 µM | 
C=C(C)[C@@H]1CC[C@]2(C#N)CC[C@]3(C)[C@H](CC[C@@H]4[C@@]5(C)CCCNC(C)(C)[C@@H]5CC[C@]43C)[C@@H]12 |  |  |  |  |  | 2.01 µM | 4.85 µM | 
CCOc1ccc(N2C(N)=NC(N)=NC2(C)C)cc1 |  |  |  |  |  | > 100 µM | > 100 µM | 
O=C1CCCC2COc3ccc(O)c1c32 (stereo not given) | > 100 |  | > 100 | > 100 | > 100 |  |  | TGI (RXF-631 renal): > 100 µM
C[C@H]1CC(=O)[C@@]2(O)C#C/C=C\C#C[C@@H]3Nc4c(cc(O)c5c4C(=O)c4ccccc4C5=O)[C@]24O[C@]314 |  |  |  |  |  | 0.292 µM | 8.35 µM and 1.35 µM | TGI (MDA-N): 0.26 µM
CC(C)S(=O)(=O)n1c(N)nc2ccc(/C(=N/O)c3ccccc3)cc21 | > 100 | > 100 | 43.8 | > 100 | > 100 |  |  | 
O=C(O)c1oc2ccc([N+](=O)[O-])c3c2c1CCC3 | > 100 | > 100 | > 100 | > 100 | > 100 |  |  | TGI (XF 498 CNS): > 100 µM
O=C(/C=C/c1cccs1)Nc1ncc(Cc2ccccc2F)s1 |  |  |  |  |  | 0.27 µM | > 100 µM | 
CCOC(=O)c1cc2cc([N+](=O)[O-])ccc2oc1=O |  |  |  |  |  |  | > 100 µM | TGI (MDA-N): > 100 µM
